What is called IC50 is the concentration that inhibits the measured activity by half.

Consider 1 compound from patent US11186581B2, “2-(1,3-dimethyl-2,6-dioxo-1,2,3,6-tetrahydro-7H-purin-7-yl)-N-(6-(2-hydroxyphenyl)pyridazin-3-yl)acetamide as a Wnt pathway modulator” (Agency for Science, Technology and Research, priority 2017, dated 2021).

The test system of the experiment is HEK293-STF3A cells. As to the kind of experiment: STF3A assay (Wnt reporter luciferase). The following applies: Homo sapiens, 24 h, 1 day of treatment, read-out: IC50 activities on STF3A cells. The format is cell-based. The procedure: HEK293-STF cell line was modified from Human embryonic kidney cell line HEK293 transfected with the STF reporter. HEK293-STF3 A cell line was further modified from HEK293-STF cell line to express Wnt3A. This cell line was used to identify compounds that regulate either early or late signalling components of the Wnt pathway. L-Wnt3 A (ATCC, #CRL-2647) cell line was used for providing Wnt3 A conditioned media. The three cell lines were grown in DMEM (Dulbecco's Modified Eagle Medium) with 10% FBS (fetal bovine serum) incubated in 37° C. with 5% CO2.
2×10^4 HEK293-STF3A cells in 75 μl culture media were seeded in each well of white 96 well plates (Greiner #655098) and incubated overnight at 37° C. 25 μl serially diluted compound was added to the cells to give final concentration of 50 μM to 1.5 nM. After 1 day of treatment, 100 μl of Steady-Glo® Luciferase Assay reagent (#E2520, Promega) was added to each well and incubated for 10 minutes at room temperature. Luminescence was measured using Tecan Safire2® plate reader.

`Cn1c(=O)c2c(ncn2CC(=O)Nc2ccc(-c3ccccc3O)nn2)n(C)c1=O` [Compound 1, 2-(1,3-dimethyl-2,6-dioxo-1,2,3,6-tetrahydro-7H-purin-7-yl)-N-(6-(2-hydroxyphenyl)pyridazin-3-yl)acetamide]: the 50% inhibitory concentration (IC50) stood at 9 nM.
